The results in this text go back to patent US11299485B2, “Thiophene derivative and use thereof” (FUJIMOTO CO., LTD., priority 2018, dated 2022).

What all share (assay type): cell-based
Test [1] has as its system Daudi cells. In words: Human Burkitt lymphoma cell line Daudi proliferation suppression test. Conditions: 72 h, compound 10 μM, 3 days, WST-8, read-out: cell survival rate (% of control) Daudi. From the text: Example 54: Human Burkitt Lymphoma Cell Line Daudi Proliferation Suppression Test
(§1) Daudi cells (National Institutes of Biomedical Innovation, Health and Nutrition (NIBIOHN), JCRB9071) were suspended in medium B, and diluted as appropriate with 0.4% trypan blue solution (Sigma-Aldrich Co. LLC.). The number of viable cells was counted with a hemocytometer (ERMA INC.). A cell suspension obtained by diluting with medium B such that the value obtained was 1.3×10^5 cells/mL was dispensed into a Falcon 96 well flat bottom plate (Corning Incorporated) at 75 μL/well, and culture was started at 37° C. under 5% CO2 stream. The next day, a solution obtained by diluting 4 mM DMSO solution of the test compound 100-fold with medium B was added by 25 μL to each well (final concentration of test compound 10 μM). 25 μL of a solution obtained by diluting DMSO 100-fold with medium B was added to the control well. After culturing at 37° C. in a 5% CO2 stream for 3 days, the cell proliferation activity was measured according to the instruction manual attached to WST-8 Kit (KISHIDA CHEMICAL Co., Ltd.).
(In general: Tetrazolium dyes change colour on reduction, which living cells bring about.)

In test [2] the test system is TNF-α production. In words: Human TNF-α production suppression test (LPS-stimulated peripheral blood mononuclear cells, ELISA). Conditions: PBMC, compound 10 μg/mL, 24 hr, control well = 100, read-out: TNF-α production suppressive rate (%). On the procedure:
Example 50: Human TNF-α Production Suppression Test
Peripheral blood of a healthy adult was collected in a vacuum blood collection tube (Terumo, containing EDTA/2Na), and then diluted two-fold with an equal volume of OTSUKA NORMAL SALINE (Otsuka Pharmaceutical Co., Ltd.). The diluted blood was mixed with Lymphoprep (AXIS-SHIELD) in half the volume of the diluted blood, dispensed into a 15 mL conical tube, and centrifuged at room temperature for 20 min (2,100 rpm). The mononuclear cells accumulated at the interface between Lymphoprep and plasma was transferred to a 50 mL conical tube, diluted with OTSUKA NORMAL SALINE, and the mononuclear cells suspension was centrifuged at room temperature for 10 min (1,150 rpm) and then the supernatant was removed. The mononuclear cells fraction obtained as a precipitate was suspended in an appropriate amount of 10% fetal calf serum (Thermo Fisher Scientific)-containing RPMI1640 medium (Thermo Fisher Scientific, hereinafter abbreviated as medium A), and diluted as appropriate with 0.4% trypan blue solution (Sigma-Aldrich Co. LLC.). The number of viable cells was counted with a hemocytometer (ERMA INC.). It was diluted with medium A such that the value obtained was 5×10^5 cells/mL. On the other hand, 75 μL of medium A, 5 μL of 0.4 mg/mL test compound solution (DMSO solution 10-fold diluted with medium A), and 20 μL of 10 μg/mL lipopolysaccharide (Sigma-Aldrich Co. LLC.) solution (diluted with medium A) were each added in advance to the same well of a Falcon 96-well flat bottom plate (Corning Incorporated), and the above-mentioned cell suspension was dispensed at 0.1 mL/well. 5 μL of DMSO diluted 10-fold with medium A was added to the control well instead of the compound solution. After culturing at 37° C. in a 5% CO2 stream for 24 hr, the culture solution was centrifuged at 4° C., 1,000 rpm for 3 min and the supernatant was recovered. The content of TNF-α in the supernatant was measured using an ELISA kit (Peprotech) according to a conventional method. The amount of TNF-α produced in the well containing the test compound was determined with the amount of TNF-α produced in the control well as 100, and the suppression rate was calculated for each test.
On the technique in general: An ELISA detects its analyte on a solid surface through an enzyme-linked reagent.

Test [3] deals with REC-1 cells. Description: Human mantle cell lymphoma cell line REC-1 proliferation suppression test. Conditions: Rec1, 72 h, compound 10 μM, 3 days, WST-8, read-out: cell survival rate (% of control) REC-1. The protocol:
Example 53: Human Mantle Cell Lymphoma Cell Line REC-1 Proliferation Suppression Test
as §1, with “REC-1” for “Daudi”, “(ATCC, CRL-3004)” for “(National Institutes of Biomedical Innovation, Health and Nutrition (NIBIOHN), JCRB9071)”, “(Funakoshi Co., Ltd.).” for “(ERMA INC.).”

Turning to `O=C1CCC(n2cc(-c3cc(Br)sc3Br)nn2)C(=O)N1` (stereo not drawn) [compound 13, 3-[4-(2,5-dibromothiophen-3-yl)-1H-1,2,3-triazol-1-yl]piperidine-2,6-dione], the figures for the viability at 10 µM in test [1] and in test [3] were 95% and 100%, respectively. Also, the inhibition at 10 µg/mL in test [2] worked out at 35%.

Take `O=C1CCC(n2cc(-c3cscc3OCC3CCCC3)nn2)C(=O)N1` (stereo not drawn) [compound 29, 3-{4-[4-(cyclopentylmethoxy)thiophen-3-yl]-1H-1,2,3-triazol-1-yl}piperidine-2,6-dione]: the viability at 10 µM in test [1] turned out to be 79%; in test [3], 86%. In test [2], the inhibition at 10 µg/mL stood at 57%.

`C[C@@H]1CN(Cc2ccc(COc3cscc3-c3cn(C4CCC(=O)NC4=O)nn3)cc2)C[C@H](C)O1` (stereo partly drawn) [compound 38, 3-{4-[4-(4-{[(2S,6R)-2,6-dimethylmorpholino]methyl}benzyloxy)thiophen-3-yl]-1H-1,2,3-triazol-1-yl}piperidine-2,6-dione]: the viability at 10 µM in test [1] came to 7%; in test [3] it was 5%. Moreover, the inhibition at 10 µg/mL in test [2] was 89%.

`O=C1CCC(n2cc(-c3ccc(Cl)s3)nn2)C(=O)N1` (stereo not drawn) [compound 11, 3-[4-(5-chlorothiophen-2-yl)-1H-1,2,3-triazol-1-yl]piperidine-2,6-dione]: the viability at 10 µM was found to be 94% in test [1] and 56% in test [3]. Besides, the inhibition at 10 µg/mL in test [2] was determined as 81%.

As for `O=C1CCC(n2cc(-c3cscc3OCc3cc4ccccc4s3)nn2)C(=O)N1` (stereo not drawn) [compound 47, 3-{4-[4-(benzo[b]thiophen-2-ylmethoxy)thiophen-3-yl]-1H-1,2,3-triazol-1-yl}piperidine-2,6-dione], the viability at 10 µM is 87% in test [1] and 33% in test [3]. Further, the inhibition at 10 µg/mL in test [2] was 63%.

On to `O=C1CCC(n2cc(-c3cscc3OCc3ccc(Cl)cc3)nn2)C(=O)N1` (stereo not drawn) [compound 43, 3-{4-[4-(4-chlorobenzyloxy)thiophen-3-yl]-1H-1,2,3-triazol-1-yl}piperidine-2,6-dione], for which the viability at 10 µM in test [1] was determined as 36%; in test [3], 23%. The inhibition at 10 µg/mL in test [2] came out at 87%.

Take `O=C1CCC(n2cc(-c3cscc3OCc3ccc(CN4CCOCC4)cc3)nn2)C(=O)N1` (stereo not drawn) [compound 36, 3-(4-{4-[4-(morpholinomethyl)benzyloxy]thiophen-3-yl}-1H-1,2,3-triazol-1-yl)piperidine-2,6-dione]: the viability at 10 µM in test [1] turned out to be 6%; in test [3], 2%. Besides, in test [2], the inhibition at 10 µg/mL stood at 98%.

For the compound `COc1c(-c2cn(C3CCC(=O)NC3=O)nn2)csc1Br` (stereo not drawn) [compound 23, 3-[4-(5-bromo-4-methoxythiophen-3-yl)-1H-1,2,3-triazol-1-yl]piperidine-2,6-dione], the viability at 10 µM was found to be 76% in test [1] and 70% in test [3]. Further, the inhibition at 10 µg/mL in test [2] came out at 62%.

For the compound `Cc1ccc(-c2cn(C3CCC(=O)NC3=O)nn2)s1` (stereo not drawn) [compound 5, 3-[4-(5-methylthiophen-2-yl)-1H-1,2,3-triazol-1-yl]piperidine-2,6-dione], the viability at 10 µM in test [1] stood at 82%; in test [3], 53%. In test [2], the inhibition at 10 µg/mL was determined as 71%.

With `Cl.O=C1CCC(n2cc(-c3cscc3OCc3ccc(CCN4CCOCC4)cc3)nn2)C(=O)N1` (stereo not drawn) [compound 45, 3-(4-{4-[4-(2-morpholinoethyl)benzyloxy]thiophen-3-yl}-1H-1,2,3-triazol-1-yl)piperidine-2,6-dione hydrochloride], the figures for the viability at 10 µM in test [1] and in test [3] were 40% and 26%, respectively. In test [2], the inhibition at 10 µg/mL is 76%.

Regarding `O=C1CCC(n2nnc(-c3ccsc3)c2Br)C(=O)N1` (stereo not drawn) [compound 48, 3-[5-bromo-4-(thiophen-3-yl)-1H-1,2,3-triazol-1-yl]piperidine-2,6-dione], the viability at 10 µM in test [1] is 80%; in test [3], 98%. For the same compound, the inhibition at 10 µg/mL in test [2] came to 51%.

For the compound `CCOc1cscc1-c1cn(C2CCC(=O)NC2=O)nn1` (stereo not drawn) [compound 17, 3-[4-(4-ethoxythiophen-3-yl)-1H-1,2,3-triazol-1-yl]piperidine-2,6-dione], the viability at 10 µM in test [1] stood at 50%; in test [3], 23%. In test [2], the inhibition at 10 µg/mL stood at 92%.

Turning to `CC(Oc1cscc1-c1cn(C2CCC(=O)NC2=O)nn1)c1ccccc1` (stereo not drawn) [compound 44, 3-{4-[4-(1-phenylethoxy)thiophen-3-yl]-1H-1,2,3-triazol-1-yl}piperidine-2,6-dione], the viability at 10 µM in test [1] amounted to 41%; in test [3], 30%. In addition, the inhibition at 10 µg/mL in test [2] turned out to be 79%.

Consider `COc1c(-c2cn(C3CCC(=O)NC3=O)nn2)csc1Cl` (stereo not drawn) [compound 22, 3-[4-(5-chloro-4-methoxythiophen-3-yl)-1H-1,2,3-triazol-1-yl]piperidine-2,6-dione], for which the values for the viability at 10 µM in test [1] and in test [3] were 81% and 65%, respectively. The inhibition at 10 µg/mL in test [2] is 48%.

For the compound `O=C1CCC(n2cc(-c3cscc3Br)nn2)C(=O)N1` (stereo not drawn) [compound 1, 3-[4-(4-bromothiophen-3-yl)-1H-1,2,3-triazol-1-yl]piperidine-2,6-dione], the viability at 10 µM came to 61% in test [1] and 43% in test [3]. Moreover, the inhibition at 10 µg/mL in test [2] stood at 90%.

Consider `O=C1CCC(n2cc(-c3csc(CO)c3)nn2)C(=O)N1` (stereo not drawn) [compound 9, 3-{4-[5-(hydroxymethyl)thiophen-3-yl]-1H-1,2,3-triazol-1-yl}piperidine-2,6-dione], for which the viability at 10 µM in test [1] amounted to 83%; in test [3], 70%. Further, the inhibition at 10 µg/mL in test [2] stood at 41%.

As for `CCOc1cc(-c2cn(C3CCC(=O)NC3=O)nn2)cs1` (stereo not drawn) [compound 24, 3-[4-(5-ethoxythiophen-3-yl)-1H-1,2,3-triazol-1-yl]piperidine-2,6-dione], the values for the viability at 10 µM in test [1] and in test [3] were 69% and 46%, respectively. In addition, in test [2], the inhibition at 10 µg/mL is 75%.

For `COC(=O)c1scc(-c2cn(C3CCC(=O)NC3=O)nn2)c1OC` (stereo not drawn) [compound 16, methyl 4-[1-(2,6-dioxopiperidin-3-yl)-1H-1,2,3-triazol-4-yl]-3-methoxythiophene-2-carboxylate], the viability at 10 µM in test [1] was 83%; in test [3] it was 85%. Also, in test [2], the inhibition at 10 µg/mL is 100%.

Turning to `CCCOc1cscc1-c1cn(C2CCC(=O)NC2=O)nn1` (stereo not drawn) [compound 21, 3-[4-(4-propoxythiophen-3-yl)-1H-1,2,3-triazol-1-yl]piperidine-2,6-dione], the viability at 10 µM came out at 86% in test [1] and 63% in test [3]. Further, in test [2], the inhibition at 10 µg/mL was found to be 30%.

With `CCCCOc1cscc1-c1cn(C2CCC(=O)NC2=O)nn1` (stereo not drawn) [compound 25, 3-[4-(4-butoxythiophen-3-yl)-1H-1,2,3-triazol-1-yl]piperidine-2,6-dione], the viability at 10 µM is 68% in test [1] and 57% in test [3]. Further, in test [2], the inhibition at 10 µg/mL came to 49%.
